Source: patent US20160298129A1, “ALS INHIBITOR HERBICIDE TOLERANT MUTANT PLANTS” (BAYER CROPSCIENCE NV, priority 2013, published 2016)

Legend:
AHAS P197S-D376E-W574L = AHAS P197S-D376E-W574L (Arabidopsis thaliana, UniProt P17597, D376E/E575Q/P197S/W574L); experiment: biochemical; settings: for Resistance Factor: AHAS P197S-D376E-W574L
Protocol: (§1) Bacteria are grown at 37° C. in LB-medium containing 100 mg/l carbenicillin and 25 mg/l canamycin, induced with 1 mM isopropyl-β-D-thiogalactopyranoside at an OD600 of 0.6, cultivated for 16 hours at 18° C. and harvested by, e.g., centrifugation. Bacterial pellets are resuspended in 100 mM sodium phosphate buffer pH 7.0 containing 0.1 mM thiamine-pyrophosphate, 1 mM MgCl2, and 1 μM FAD at a concentration of 1 gram wet weight per 25 ml of buffer and disrupted by, e.g., sonification. The crude protein extract obtained after centrifugation is used for ALS activity measurements.
(§2) ALS protein can be extracted from leaves or tissue cultures, such as B. napus or B. juncea leaves, or B. napus or B. juncea tissue cultures as described by Ray (Plant Physiol, 1984, 75:827-831). An ALS assays can be carried out in 96-well microtiter plates using a modification of the procedure described by Ray (1984): The reaction mixture contains 20 mM potassium phosphate buffer pH 7.0, 20 mM sodium pyruvate, 0.45 mM thiamine-pyrophosphate, 0.45 mM MgCl2, 9 μM FAD. ALS enzyme and various concentrations of ALS inhibitors can be mixed in a final volume of 90 μl Assays can be initiated by adding enzyme and the assays can be terminated after 75 min incubation at 30° C. by the addition of 40 μl 0.5 M H2SO4.

AHAS D376E-W574L = AHAS D376E-W574L (Arabidopsis thaliana, UniProt P17597, D376E/E575Q/W574L); experiment: biochemical; settings: for Resistance Factor: AHAS D376E-W574L
Protocol: as §1, §2

AHAS P197S-W574L = AHAS P197S-W574L (Arabidopsis thaliana, UniProt P17597, E575Q/P197S/W574L); experiment: biochemical; settings: for Resistance Factor: AHAS P197S-W574L
Protocol: as §1, §2

AHAS P197S-D376E = AHAS P197S-D376E (Arabidopsis thaliana, UniProt P17597, D376E/E575Q/P197S); experiment: biochemical; settings: for Resistance Factor: AHAS P197S-D376E
Protocol: as §1, §2

AHAS D376E = AHAS D376E (Arabidopsis thaliana, UniProt P17597, D376E/E575Q); experiment: biochemical; settings: for Resistance Factor: AHAS D376E
Protocol: as §1, §2

AHAS P197S = AHAS P197S (Arabidopsis thaliana, UniProt P17597, E575Q/P197S); format: biochemical
Protocol: as §1, §2

AHAS W574L = AHAS W574L (Arabidopsis thaliana, UniProt P17597, E575Q/W574L); format: biochemical
Protocol: as §1, §2

[1] = system: oilseed rape homozygous for HETO133 and HETO134 (133-134); experiment: Field herbicide tolerance, visible phytotoxicity (ALS I W574L, ALS III W574L); format: in vivo, Brassica napus; settings: gai/ha: imazamox 40, bispyribac-sodium 50, propoxycarbazone-sodium 70, mesosulfuron-methyl 60, pyroxsulam 12.5 + cloquintocet-mexyl 37.5, each + rapeseed oil methylated 366.5
Text: (§3) Seeds of spring oilseed rape homozygous for HETO139 and HETO134 were sown in a field according to typical practical agricultural methods together with seeds homozygous for HETO134 and HETO133 (comprising a W574L mutation on ALS III, which were obtained in the same way as HETO134), and with seeds homozygous for HETO134 and HETO132 (comprising a P197S and a W574L mutation on ALS III, which were obtained in essentially the same way as HETO139). Several ALS inhibitor herbicides were applied to the oilseed rape plants by using specific spray equipment for small plot applications.

[2] = system: oilseed rape homozygous for HETO139 and HETO134 (139-134); experiment: Field herbicide tolerance, visible phytotoxicity (ALS I W574L, ALS III P197S-D376E); format: in vivo, Brassica napus; settings: gai/ha: imazamox 40, bispyribac-sodium 50, propoxycarbazone-sodium 70, mesosulfuron-methyl 60, pyroxsulam 12.5 + cloquintocet-mexyl 37.5, each + rapeseed oil methylated 366.5
Text: as §3

[3] = system: wild-type (WT) oilseed rape; experiment: Field herbicide tolerance, visible phytotoxicity; format: in vivo, Brassica napus; settings: gai/ha: imazamox 40, bispyribac-sodium 50, propoxycarbazone-sodium 70, mesosulfuron-methyl 60, pyroxsulam 12.5 + cloquintocet-mexyl 37.5, each + rapeseed oil methylated 366.5
[4] = system: oilseed rape homozygous for HETO132 and HETO134 (132-134); experiment: Field herbicide tolerance, visible phytotoxicity (ALS I W574L, ALS III P197S-W574L); format: in vivo, Brassica napus; settings: gai/ha: imazamox 40, bispyribac-sodium 50, propoxycarbazone-sodium 70, mesosulfuron-methyl 60, pyroxsulam 12.5 + cloquintocet-mexyl 37.5, each + rapeseed oil methylated 366.5
Text: as §3

Sequence of AHAS P197S-D376E (P17597 56-670 P197S/D376E/E575Q): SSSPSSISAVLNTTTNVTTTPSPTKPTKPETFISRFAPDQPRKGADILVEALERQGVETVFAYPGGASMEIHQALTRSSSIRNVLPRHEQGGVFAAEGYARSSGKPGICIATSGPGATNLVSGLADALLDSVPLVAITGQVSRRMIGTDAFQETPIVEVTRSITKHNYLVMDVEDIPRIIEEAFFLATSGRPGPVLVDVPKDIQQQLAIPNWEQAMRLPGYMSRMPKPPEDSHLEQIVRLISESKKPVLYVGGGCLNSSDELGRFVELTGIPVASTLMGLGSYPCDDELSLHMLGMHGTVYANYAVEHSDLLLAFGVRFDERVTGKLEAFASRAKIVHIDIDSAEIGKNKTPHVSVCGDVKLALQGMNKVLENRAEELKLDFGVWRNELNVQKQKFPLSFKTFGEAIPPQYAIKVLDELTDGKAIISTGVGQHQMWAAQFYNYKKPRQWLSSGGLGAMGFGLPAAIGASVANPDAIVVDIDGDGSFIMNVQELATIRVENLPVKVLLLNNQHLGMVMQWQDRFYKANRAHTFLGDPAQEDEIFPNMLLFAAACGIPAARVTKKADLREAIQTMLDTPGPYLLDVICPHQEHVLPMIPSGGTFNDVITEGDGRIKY
Sequence of AHAS P197S-D376E-W574L (P17597 56-670 P197S/D376E/W574L/E575Q): as the sequence (P17597 56-670 P197S/D376E/E575Q) above, with W519L counted along it
Sequence of AHAS D376E-W574L (P17597 56-670 D376E/W574L/E575Q): as the sequence (P17597 56-670 P197S/D376E/E575Q) above, with S142P, W519L counted along it
Sequence of AHAS P197S-W574L (P17597 56-670 P197S/W574L/E575Q): as the sequence (P17597 56-670 P197S/D376E/E575Q) above, with E321D, W519L counted along it
Sequence of AHAS P197S (P17597 56-670 P197S/E575Q): as the sequence (P17597 56-670 P197S/D376E/E575Q) above, with E321D counted along it
Sequence of AHAS D376E (P17597 56-670 D376E/E575Q): as the sequence (P17597 56-670 P197S/D376E/E575Q) above, with S142P counted along it
Sequence of AHAS W574L (P17597 56-670 W574L/E575Q): as the sequence (P17597 56-670 P197S/D376E/E575Q) above, with S142P, E321D, W519L counted along it

Row | Compound | IC50 (AHAS P197S-D376E-W574L) | Resistance Factor (AHAS P197S-D376E-W574L) | IC50 (AHAS D376E-W574L) | Resistance Factor (AHAS D376E-W574L) | IC50 (AHAS P197S-W574L) | Resistance Factor (AHAS P197S-W574L) | IC50 (AHAS P197S-D376E) | Resistance Factor (AHAS P197S-D376E) | IC50 (AHAS D376E) | Resistance Factor (AHAS D376E) | Resistance Factor (AHAS P197S) | Resistance Factor (AHAS W574L) | Percentage phytotoxicity ([1]; 9 DAA) | Percentage phytotoxicity ([1]; 16 DAA) | Percentage phytotoxicity ([1]; 24 DAA) | Percentage phytotoxicity ([2]; 9 DAA) | Percentage phytotoxicity ([2]; 16 DAA) | Percentage phytotoxicity ([2]; 24 DAA) | Percentage phytotoxicity ([3]; 9 DAA) | Percentage phytotoxicity ([3]; 16 DAA) | other results
1 | COc1cc(OC)nc(NC(=O)NS(=O)(=O)N(C)S(C)(=O)=O)n1 [Amidosulfuron, amidosulfuron] | > 100 µM | >488 | > 100 µM | >488 | > 100 µM | >488 | > 100 µM | >488 | > 100 µM | >488 | >488 | >488 | – | – | – | – | – | – | – | – | –
2 | COc1cc(OC)nc(Oc2cccc(Oc3nc(OC)cc(OC)n3)c2C(=O)O)n1 [Bispyribac-sodium, bispyribac-sodium] | > 100 µM | >5623 | > 100 µM | >5623 | > 100 µM | >5623 | 7.94 µM | 447 | 1 µM | 56 | 4 | 447 | 56.7% | 88.3% | 92.7% | 40% | 65% | 43.3% | 76.7% | 98.3% | Percentage phytotoxicity ([3]; 24 DAA): 100%; Percentage phytotoxicity ([4]; 9 DAA): 46.7%; Percentage phytotoxicity ([4]; 16 DAA): 71.7%; Percentage phytotoxicity ([4]; 24 DAA): 43.3%
3 | COc1cc(OC)nc(NC(=O)NS(=O)(=O)c2ncccc2C(F)(F)F)n1 [Flazasulfuron, flazasulfuron] | > 100 µM | >120226 | > 100 µM | >120226 | > 100 µM | >120226 | > 100 µM | >120226 | 0.631 µM | 759 | 120 | 3802 | – | – | – | – | – | – | – | – | –
4 | COC(=O)c1ccc(C(F)(F)F)nc1S(=O)(=O)NC(=O)Nc1nc(OC)cc(OC)n1 [Flupyrsulfuron-methyl] | – | >47863 | – | >47863 | – | >47863 | – | >47863 | – | 2399 | – | – | – | – | – | – | – | – | – | – | –
5 | COCc1cnc(C2=NC(C)(C(C)C)C(=O)N2)c(C(=O)O)c1 (stereo not drawn) [Imazamox, imazamox] | > 100 µM | >22 | > 100 µM | >22 | > 100 µM | >22 | > 100 µM | >22 | 50.1 µM | 11 | 1 | >22 | 6.7% | 10% | 0% | 13.3% | 13.3% | 0% | 73.3% | 98% | Percentage phytotoxicity ([3]; 24 DAA): 99%; Percentage phytotoxicity ([4]; 9 DAA): 6.7%; Percentage phytotoxicity ([4]; 16 DAA): 8.7%; Percentage phytotoxicity ([4]; 24 DAA): 0%
6 | COC(=O)c1ccc(I)cc1S(=O)(=O)[N-]C(=O)Nc1nc(C)nc(OC)n1.[Na+] [Iodosulfuron-methy-sodium, iodosulfuron-methyl-sodium] | – | >35030 | – | >35030 | – | >35030 | – | >35030 | – | 3503 | 139 | 555 | – | – | – | – | – | – | – | – | –
7 | COC(=O)c1ccc(CNS(C)(=O)=O)cc1S(=O)(=O)NC(=O)Nc1nc(OC)cc(OC)n1 [Mesosulfuron-methyl, mesosulfuron-methyl] | – | >64730 | – | >64730 | – | >64730 | – | – | – | 12915 | 65 | 25770 | 11.7% | 13.3% | 3.3% | 9.3% | 13.3% | 5% | 76.7% | 98% | Percentage phytotoxicity ([3]; 24 DAA): 96%; Percentage phytotoxicity ([4]; 9 DAA): 11.7%; Percentage phytotoxicity ([4]; 16 DAA): 11.7%; Percentage phytotoxicity ([4]; 24 DAA): 20.3%
8 | COc1cc(OC)n2nc(S(=O)(=O)Nc3c(Cl)ccc(C)c3Cl)nc2n1 [Metosulam, metosulam] | > 100 µM | >28840 | > 100 µM | >28840 | > 100 µM | >28840 | > 100 µM | >28840 | 2 µM | 575 | 457 | 5754 | – | – | – | – | – | – | – | – | –
9 | COC(=O)c1ccccc1S(=O)(=O)NC(=O)Nc1nc(C)nc(OC)n1 [Metsulfuron-methyl, metsulfuron-methyl] | – | >7547 | – | >7547 | – | >7547 | – | >7547 | – | 239 | 38 | 755 | – | – | – | – | – | – | – | – | –
10 | CCCOc1nn(C(=O)[N-]S(=O)(=O)c2ccccc2C(=O)OC)c(=O)n1C.[Na+] [PROPOXYCARBAZONE-SODIUM, propoxycarbazone-sodium] | – | – | – | – | – | – | – | – | – | – | – | – | 53.3% | 82.7% | 76.7% | 15% | 20% | 1.7% | 76.7% | 97% | Percentage phytotoxicity ([3]; 24 DAA): 97.7%; Percentage phytotoxicity ([4]; 9 DAA): 40%; Percentage phytotoxicity ([4]; 16 DAA): 36.7%; Percentage phytotoxicity ([4]; 24 DAA): 11.7%
11 | CCCOc1nn(C(=O)[N-]S(=O)(=O)c2ccccc2C(=O)OC)c(=O)n1C.[Na+] [Propoxycarbazone] | – | >4641 | – | >4641 | – | >4641 | – | >4641 | – | 1468 | 147 | 293 | – | – | – | – | – | – | – | – | –
12 | COC(=O)c1csc(C)c1S(=O)(=O)NC(=O)n1nc(OC)n(C)c1=O [Thiencarbazone-methyl, thiencarbazone-methyl] | – | >7399 | – | >7399 | – | >7399 | – | >7399 | – | 371 | 1173 | 1173 | – | – | – | – | – | – | – | – | –
13 | COC(=O)c1sccc1S(=O)(=O)NC(=O)Nc1nc(C)nc(OC)n1 [Thifensulfuron-Methyl, thifensulfuron-methyl] | > 100 µM | >2511 | > 100 µM | >2511 | > 100 µM | >2511 | > 100 µM | >2511 | 25.1 µM | 631 | 200 | 1585 | – | – | – | – | – | – | – | – | –
